Results on 25 compounds are retold here after US7407982B2, “Oligo or polyalkylene glycol-coupled thrombin inhibitors” (HaemoSys GmbH, priority 2001, dated 2008).

pKi: −log10 of the molar value. Like-named read-outs stand apart in the source and are kept apart here.

The target of one series is T1, trypsin (Bos taurus, UniProt P00760).
T1 sequence (P00760 24-246): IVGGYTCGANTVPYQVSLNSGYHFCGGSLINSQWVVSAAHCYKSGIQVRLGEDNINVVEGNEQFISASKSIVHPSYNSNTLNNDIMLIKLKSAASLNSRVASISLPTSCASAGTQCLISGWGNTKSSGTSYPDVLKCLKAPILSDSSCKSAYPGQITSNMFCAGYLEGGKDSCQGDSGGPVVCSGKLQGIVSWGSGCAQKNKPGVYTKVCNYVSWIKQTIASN
The series is described as follows: Ki values for trypsin, determined analogously. Type of series: biochemical. The procedure:
The Ki values for trypsin were determined analogously.
For optimizing the inhibitor conjugates, in particular of the following Examples 1 and 2, suitable groups R1 were sought which allow as strong a thrombin inhibition as possible. For examining the selectivity of the compounds, the inhibiting constants for trypsin were determined as well. The higher the quotient [KiTrypsin/KiThrombin], the more selectively the compound functions as a thrombin inhibitor. In order to facilitate the synthesis, this optimization was first carried out without coupling a polyalkylene glycol group to inhibitor molecules of formula (II) as listed in Table I. These compounds, which are active as thrombin inhibitors themselves, can be used as synthetic intermediates for the inhibitor conjugates of formula (I). As a central component, a glycyl-prolyl-dipeptide was consistently incorporated into the inhibitors.

Series [1] addresses T2, thrombin (Homo sapiens, UniProt P00734). The series is described as follows: Kinetic constants of chloromethyl ketone inhibitors (method of Stein and Trainor). The format is biochemical. The following applies: chloromethyl ketone inhibitor; for pKi: read-out: Kii.
The target in the next series is T3, human α-thrombin (Homo sapiens, UniProt P00734).
T3 construct: 50 μl human α-thrombin (Kordia); purchased Kordia
Kind of series: Determination of Ki for thrombin inhibition (chromogenic or fluorogenic substrate, Dixon). Type of series: biochemical. Particulars: for KiTrypsin/KiThrombin: Example 8, selectivity quotient. On the procedure: The Ki values are the average values of at least three calculations.
For determining the thrombin inhibiting effect of all reversibly binding inhibitors and inhibitor conjugates with inhibiting constants smaller than 1 nM, a fluorescence spectrometer (LS50B from the company Perkin Elmer) was used. […] The Ki values are the average values of at least three calculations.

A short description of series [2]: Elimination of the inhibitor conjugates in rats (blood level, urine recovery, clotting test). The format is in vivo. The following applies: female, Wistar, rat; for half-life: blood. On the procedure:
Preliminary remarks: Female Wistar rats with a body weight between 150 to 250 g were used for the experiments. The animals were kept under conventional conditions and were provided with standard food and water ad libitum. Anaesthetization was carried out with 1.5 g ethylurethane per kg of body weight. Then the right and left jugular veins were prepared and catheters were inserted so that blood could be drawn at different points of time. The urine was collected throughout the entire test period and the inhibitor concentration was determined by means of a clotting test.

Series [3] addresses T2, thrombin. The following applies: taken from the literature, cited from earlier work.
In a further series the target is plasmin (Homo sapiens, UniProt P00747). The series is described as follows: Inhibiting constants with respect to plasmin. Particulars: Example 8a table. Type of series: biochemical. The text has this:
(§1) For this reason, two selected representatives of the inhibitors without PEG described in Tables 1 and 2 and one PEG-coupled inhibitor were examined with respect to their inhibiting effect on these enzymes.
(§2) Inhibiting constants of selected inhibitors with respect to the enzymes thrombin, plasmin, urokinase and tPA (values given in nM).

The target in another series is urokinase (Homo sapiens, UniProt P00749). Kind of series: Inhibiting constants with respect to urokinase. The format is biochemical. Particulars: Example 8a table.
From the text: as §1, §2

The target in a further series is tPA (Homo sapiens, UniProt P00750). Kind of series: Inhibiting constants with respect to tPA. Type of series: biochemical. The following applies: Example 8a table.
Sequence of tPA (P00750 36-562, species assumed): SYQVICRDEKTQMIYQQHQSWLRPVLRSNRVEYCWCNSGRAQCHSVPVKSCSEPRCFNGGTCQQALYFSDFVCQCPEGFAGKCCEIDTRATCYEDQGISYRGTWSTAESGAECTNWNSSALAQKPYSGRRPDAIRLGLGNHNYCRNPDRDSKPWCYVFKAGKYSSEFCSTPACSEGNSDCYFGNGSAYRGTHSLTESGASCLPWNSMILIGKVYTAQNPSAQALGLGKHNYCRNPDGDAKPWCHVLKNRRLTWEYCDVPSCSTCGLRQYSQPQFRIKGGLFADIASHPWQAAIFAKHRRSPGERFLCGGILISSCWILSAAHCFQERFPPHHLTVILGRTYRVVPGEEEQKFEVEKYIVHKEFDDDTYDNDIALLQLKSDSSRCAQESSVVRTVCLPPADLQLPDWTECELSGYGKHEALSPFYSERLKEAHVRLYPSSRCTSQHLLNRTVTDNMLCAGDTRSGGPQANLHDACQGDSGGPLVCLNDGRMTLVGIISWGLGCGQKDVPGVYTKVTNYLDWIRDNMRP
From the text: as §1, §2

Where [4] appears, read: Table I, formula (II) compounds.
Where [5] appears, read: Table 2, formula (III) compounds.
Where [6] appears, read: Example 8, read-out: KiThrombin.

Sequence of plasmin (P00747 581-810 limits assumed, species assumed): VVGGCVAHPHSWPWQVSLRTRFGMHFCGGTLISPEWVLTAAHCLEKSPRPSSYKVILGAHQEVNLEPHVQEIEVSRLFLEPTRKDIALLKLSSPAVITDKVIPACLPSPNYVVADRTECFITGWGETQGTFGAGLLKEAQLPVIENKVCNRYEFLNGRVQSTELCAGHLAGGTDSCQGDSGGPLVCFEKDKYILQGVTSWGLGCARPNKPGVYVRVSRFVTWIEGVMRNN
Sequence of plasmin (P00747 97-580 partner limits assumed, species assumed): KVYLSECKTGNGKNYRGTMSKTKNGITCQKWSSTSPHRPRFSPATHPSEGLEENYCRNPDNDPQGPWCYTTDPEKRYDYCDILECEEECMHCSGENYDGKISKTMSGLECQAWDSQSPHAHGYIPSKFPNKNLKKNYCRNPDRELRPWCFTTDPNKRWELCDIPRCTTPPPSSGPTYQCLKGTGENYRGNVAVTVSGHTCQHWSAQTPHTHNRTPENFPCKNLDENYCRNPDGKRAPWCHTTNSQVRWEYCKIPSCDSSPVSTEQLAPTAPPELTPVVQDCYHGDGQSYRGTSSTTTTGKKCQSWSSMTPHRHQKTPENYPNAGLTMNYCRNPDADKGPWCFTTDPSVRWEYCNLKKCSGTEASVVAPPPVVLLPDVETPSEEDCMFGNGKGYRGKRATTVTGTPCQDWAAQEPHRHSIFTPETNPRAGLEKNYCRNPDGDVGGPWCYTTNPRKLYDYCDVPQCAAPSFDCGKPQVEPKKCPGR

For orientation: kinact means the maximal first-order rate at which the target is inactivated. Turning to “H-d-N(CH2—CONH-PEG2000-OMe)Cha-Pro-Arg-CH2—Cl×2 trifluoroacetic acid”, the figures for the pKi at trypsin (setting [4]), at thrombin [1] and on human α-thrombin (setting [4]) were 8.43, 7.97 and 8.42, respectively. Besides, the Kinact/Ki on thrombin [1] worked out at 7.5e+06 M⁻¹ s⁻¹. In addition, the kinact on thrombin [1] was determined as 0.08 s⁻¹. The “Ki Trypsin/Ki Thrombin” value on human α-thrombin (Table I, selectivity quotient) was determined as 0.97.
With `N=C(N)c1ccc(CNC(=O)[C@@H]2CCCN2C(=O)[C@H](CC(=O)OCc2ccccc2)NS(=O)(=O)c2ccc3ccccc3c2)cc1` [compound 36], the pKi is 7.75 at trypsin (setting [5]) and 8.89 at human α-thrombin (setting [5]). The “Ki Trypsin/Ki Thrombin” value on human α-thrombin (Table 2, selectivity quotient) is 13.6.
With `N=C(N)N1CCC(CNC(=O)[C@@H]2CCCN2C(=O)[C@@H](CC2CCCCC2)NCC(=O)NCC2COCCOCCOCCOCCO2)CC1` (some centres unmarked) [inhibitor structure (VI)], the half-life in series [2] (sc, rats, subcutaneous administration of 5 mg/kg) is ~5.83 h.
With “D-N(CH2—CO—NH-PEG5000-OMe)Cha-Pro-4-(amidomethyl)-N(amidino)piperidine×2 HCl”, the pKi on trypsin (Example 8, read-out: KiTrypsin) is 6.62; on trypsin (setting [4]), 8.21; at human α-thrombin (setting [6]), 8.62; at human α-thrombin (setting [4]), 8.46. The KiTrypsin/KiThrombin on human α-thrombin is given as 100. Besides, the “Ki Trypsin/Ki Thrombin” value at human α-thrombin (Table I, selectivity quotient) amounted to 1.8.
As for `COc1cc(C)c(S(=O)(=O)NCC(=O)N2CCC[C@H]2C(=O)NCc2ccc(C(=N)N)cc2)c(C)c1C` [compound 2], the pKi is 7.80 at trypsin (setting [4]) and 8.89 at human α-thrombin (setting [4]). Besides, at human α-thrombin (Table I, selectivity quotient), the “Ki Trypsin/Ki Thrombin” value is recorded as 12.1.
Regarding `COc1ccc(S(=O)(=O)N[C@@H](CC(=O)OCc2ccccc2)C(=O)N2CCC[C@H]2C(=O)NCc2ccc(C(=N)N)cc2)cc1` [compound 49], the pKi is 7.42 at trypsin (setting [5]) and 9.68 on human α-thrombin (setting [5]). In addition, the “Ki Trypsin/Ki Thrombin” value on human α-thrombin (Table 2, selectivity quotient) worked out at 181.
`NC(N)=NCCC[C@H](NC(=O)[C@@H]1CCCN1C(=O)[C@H](N)Cc1ccccc1)C(=O)CCl` [PPACK, D-Phe-Pro-Arg-CH2—Cl]: at thrombin [3], the Kinact/Ki is 4.4e+06 M⁻¹ s⁻¹ and the kinact is 0.11 s⁻¹. Also, on thrombin [3] (read-out: Kii), the pKi was 7.60.
With `N=C(N)c1ccc(CNC(=O)[C@@H]2CCCN2C(=O)CNS(=O)(=O)CC2CCCCC2)cc1` [compound 20], the pKi at trypsin (setting [4]) is 8.51; on human α-thrombin (setting [4]) it was 7.87. Also, the “Ki Trypsin/Ki Thrombin” value on human α-thrombin (Table I, selectivity quotient) is recorded as 0.22.
With `N=C(N)c1ccc(CNC(=O)[C@@H]2CCCN2C(=O)[C@@H](CC(N)=O)NS(=O)(=O)c2ccc3ccccc3c2)cc1` [compound 43], the pKi on trypsin (setting [5]) was 7.65; at human α-thrombin (setting [5]), 7.28. For the same compound, on human α-thrombin (Table 2, selectivity quotient), the “Ki Trypsin/Ki Thrombin” value is 0.42.
On to `N=C(N)N1CCC(CNC(=O)[C@@H]2CCCN2C(=O)[C@@H](CC2CCCCC2)NCC(=O)O)CC1` [formula (IV)], for which, in series [2] (intravenous administration of 10 mg/kg), the half-life is ~0.275 h. In addition, the dose excreted in series [2] (urine, sc, rats, subcutaneous administration, read-out: cumulative percentage recovery in the urine) was ~58%.
For the compound `COc1ccc(S(=O)(=O)N[C@@H](CC(=O)NCc2ccccc2)C(=O)N2CCC[C@H]2C(=O)NCc2ccc(C(=N)N)cc2)cc1` [compound 47], the pKi on trypsin (setting [5]) was 7.41; on human α-thrombin (setting [5]), 10.19. In addition, the “Ki Trypsin/Ki Thrombin” value on human α-thrombin (Table 2, selectivity quotient) was 600.
For `COc1ccc(S(=O)(=O)N[C@@H](CC(=O)NCc2ccc(CN)cc2)C(=O)N2CCC[C@H]2C(=O)NCc2ccc(C(=N)N)cc2)cc1` [compound 45], the pKi at trypsin (setting [5]) was 7.41; on human α-thrombin (setting [5]) it was 10.21. At human α-thrombin (Table 2, selectivity quotient), the “Ki Trypsin/Ki Thrombin” value is given as 639.
`COc1ccc(S(=O)(=O)NC(CC(N)=O)C(=O)N2CCCC2C(=O)NCc2ccc(C(=N)N)cc2)cc1` (centres unmarked) [compound 50]: the pKi on plasmin is 4.76; at urokinase, 4.28; on tPA, 4.33; on human α-thrombin (setting [5]), 9.44. The “Ki Trypsin/Ki Thrombin” value at human α-thrombin (Table 2, selectivity quotient) is 147.
Consider `COc1ccc(S(=O)(=O)NCC(=O)N2CCC[C@H]2C(=O)NCc2ccc(C(=N)N)cc2)cc1` [1c], for which the pKi at plasmin was 5.24; on urokinase, 3.65; at tPA it was 6.20; at human α-thrombin (setting [4]), 9.01. Moreover, the “Ki Trypsin/Ki Thrombin” value is listed as 23.4 at human α-thrombin (Table 2, selectivity quotient) and 23.4 at human α-thrombin (Table I, selectivity quotient).
In the case of `N=C(N)c1ccc(CNC(=O)[C@@H]2CCCN2C(=O)[C@H](CN)NS(=O)(=O)c2ccc3ccccc3c2)cc1` [compound 37], the values for the pKi on trypsin (setting [5]) and at human α-thrombin (setting [5]) were 7.99 and 8.62, respectively. At human α-thrombin (Table 2, selectivity quotient), the “Ki Trypsin/Ki Thrombin” value amounted to 4.3.
In the case of `N=C(N)NCCC[C@H](NC(=O)[C@@H]1CCCN1C(=O)[C@@H](CC1CCCCC1)NCC(=O)O)C(=O)CCl.O=C(O)C(F)(F)F.O=C(O)C(F)(F)F` [analogous non-PEG-coupled compound, H-d-N(CH2—COOH)Cha-Pro-Arg-CH2—Cl×2 trifluoroacetic acid, reference compound], on thrombin [1], the Kinact/Ki worked out at 2.1e+07 M⁻¹ s⁻¹, the kinact was 0.079 s⁻¹ and the pKi was 8.42.
In the case of `N=C(N)c1ccc(CNC(=O)[C@@H]2CCCN2C(=O)CNS(=O)(=O)CCc2ccccc2)cc1` [compound 31], the values for the pKi at trypsin (setting [4]) and on human α-thrombin (setting [4]) were 7.78 and 7.38, respectively. Besides, the “Ki Trypsin/Ki Thrombin” value at human α-thrombin (Table I, selectivity quotient) was determined as 0.39.
On to `COc1ccc(S(=O)(=O)N[C@@H](CC(=O)NCc2cccc(CN)c2)C(=O)N2CCC[C@H]2C(=O)NCc2ccc(C(=N)N)cc2)cc1` [compound 48], for which the pKi is 7.39 on trypsin (setting [5]) and 10.10 on human α-thrombin (setting [5]). In addition, on human α-thrombin (Table 2, selectivity quotient), the “Ki Trypsin/Ki Thrombin” value is recorded as 512.
In the same order, the values of `COc1ccc(S(=O)(=O)N[C@@H](CC(=O)NCc2ccc(C#N)cc2)C(=O)N2CCC[C@H]2C(=O)NCc2ccc(C(=N)N)cc2)cc1` [compound 44] are 7.39, 10.35 and 911.
In the case of “4-methoxy-benzenesulfonyl-Asn(PEG2000-OMe)-Pro-4-amidinobenzylamide”, the pKi was 4.47 on plasmin; 3.80 on urokinase; 3.22 on tPA; 7.03 at trypsin (Example 8, read-out: KiTrypsin); 9.28 on human α-thrombin (setting [6]). Moreover, the KiTrypsin/KiThrombin at human α-thrombin is given as 174.
Regarding “4-Methoxy-benzenesulfonyl-Lys(propionyl-PEG5000-OMe)-Pro-4-amidinobenzylamide”, the pKi at trypsin (Example 8, read-out: KiTrypsin) is 7.21; on human α-thrombin (setting [6]) it was 9.02. This compound also gave a KiTrypsin/KiThrombin at human α-thrombin of 64.
As for `COC(=O)C[C@H](NS(=O)(=O)c1ccc(OC)cc1)C(=O)N1CCC[C@H]1C(=O)NCc1ccc(C(=N)N)cc1` [compound 52], the pKi on trypsin (setting [5]) was 7.67; on human α-thrombin (setting [5]), 9.17. Moreover, the “Ki Trypsin/Ki Thrombin” value at human α-thrombin (Table 2, selectivity quotient) is 31.
Take `Cc1c(C)c(S(=O)(=O)NCC(=O)N2CCC[C@H]2C(=O)NCc2ccc(C(=N)N)cc2)c(C)c2c1OC(C)(C)C2` [compound 28]: the pKi on trypsin (setting [4]) is 7.43; on human α-thrombin (setting [4]), 7.52. The “Ki Trypsin/Ki Thrombin” value on human α-thrombin (Table I, selectivity quotient) was found to be 1.2.
`COc1ccc(S(=O)(=O)N[C@@H](CO)C(=O)N2CCC[C@H]2C(=O)NCc2ccc(C(=N)N)cc2)cc1` [compound 51]: the pKi on trypsin (setting [5]) was 7.77; at human α-thrombin (setting [5]), 9.59. Also, the “Ki Trypsin/Ki Thrombin” value at human α-thrombin (Table 2, selectivity quotient) is given as 67.
Regarding “H-D-N(CH2—CO—NH-PEG5000-OMe)Cha-Pro-4-(amidino)benzylamide”, the pKi on trypsin (Example 8, read-out: KiTrypsin) was 8.47; on trypsin (setting [4]), 8.52; on human α-thrombin (setting [6]), 9.01; on human α-thrombin (setting [4]), 8.72. Further, the KiTrypsin/KiThrombin at human α-thrombin is listed as 3.5. In addition, on human α-thrombin (Table I, selectivity quotient), the “Ki Trypsin/Ki Thrombin” value is reported as 1.6.
